The source made the active and inactive calls. The rule behind the calls is not given here.
How the values were obtained:
[1] = system: MRC5; experiment: Cytotoxicity against human MRC5 cells at 100 uM after 24 hrs by MTT assay; format: cell-based; details: mrc5, 24 h
[2] = system: RAW264.7; experiment: Inhibition of Fe(2+)/H2O2-generated hydroxyl radical induced membrane protein oxidation in mouse RAW264.7 cells at 1 uM to 50 uM relative to control; format: functional
[3] = system: RAW264.7; experiment: Cytotoxicity against mouse RAW264.7 cells at 100 uM after 24 hrs by MTT assay; format: functional, cell-based
[4] = system: RAW264.7; experiment: Antioxidant activity against mouse RAW264.7 cells assessed as reduction of ROS production after 200 mins measured by fluorescent dichlorofluorescein using DCFH-DA substrate; format: functional, cell-based; details: TDE = time-dependent effect
[5] = Antioxidant activity assessed as Fenton system generated hydroxyl radical scavenging activity by ESR spectrometer; format: functional
[6] = Antioxidant activity assessed as […] generated peroxyl radical scavenging formation by ESR spectrometer; format: functional
[7] = system: Radical scavenging activity; experiment: Antioxidant activity assessed as DPPH radical scavenging activity; format: functional
[8] = system: HL-60; experiment: Cytotoxicity against human HL60 cells at 100 uM after 24 hrs by MTT assay; format: functional, cell-based
[9] = Antioxidant activity assessed as superoxide radical scavenging activity; format: functional
[10] = system: RAW264.7; experiment: Antioxidant activity against mouse RAW264.7 cells assessed as reduction of ROS production measured by fluorescent dichlorofluorescein using DCFH-DA substrate; format: functional, cell-based
[11] = biological target: T1, Myeloperoxidase (Homo sapiens) (UniProt P05164); experiment: Inhibition of MPO activity in TNF-alpha-stimulated human HL60 cells measured enzyme activity per 10^6 cells at 50 uM by spectrophotometrically; format: cell-based; details: HL-60
T1 sequence (whole entry): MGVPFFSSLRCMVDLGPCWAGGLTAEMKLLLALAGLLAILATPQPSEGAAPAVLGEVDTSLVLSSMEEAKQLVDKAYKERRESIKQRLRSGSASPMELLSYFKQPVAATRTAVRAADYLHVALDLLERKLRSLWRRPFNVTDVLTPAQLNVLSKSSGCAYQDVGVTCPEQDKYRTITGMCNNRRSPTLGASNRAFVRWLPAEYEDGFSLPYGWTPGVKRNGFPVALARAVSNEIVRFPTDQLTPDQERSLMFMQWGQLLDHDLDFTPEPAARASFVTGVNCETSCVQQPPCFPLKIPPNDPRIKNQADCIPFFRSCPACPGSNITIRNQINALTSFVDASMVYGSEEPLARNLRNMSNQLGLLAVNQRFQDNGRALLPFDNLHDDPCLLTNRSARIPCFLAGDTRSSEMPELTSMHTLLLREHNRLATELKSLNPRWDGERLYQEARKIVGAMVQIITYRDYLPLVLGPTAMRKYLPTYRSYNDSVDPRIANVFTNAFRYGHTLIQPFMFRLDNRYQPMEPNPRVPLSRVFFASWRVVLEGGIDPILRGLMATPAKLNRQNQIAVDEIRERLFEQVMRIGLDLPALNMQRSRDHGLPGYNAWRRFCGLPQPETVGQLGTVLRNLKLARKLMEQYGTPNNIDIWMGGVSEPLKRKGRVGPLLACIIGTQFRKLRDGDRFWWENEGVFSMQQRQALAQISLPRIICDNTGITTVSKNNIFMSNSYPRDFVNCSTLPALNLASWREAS

[12] = system: RAW264.7; experiment: Antioxidant activity against mouse RAW264.7 cells assessed as reduction of ROS production at 50 uM after 200 mins measured by fluorescent dichlorofluorescein using DCFH-DA substrate; format: functional, cell-based
[13] = system: RAW264.7; experiment: Antioxidant activity against mouse RAW264.7 cells assessed as reduction of ROS production at 50 uM after 210 mins measured by fluorescent dichlorofluorescein using DCFH-DA substrate; format: functional; set-up: scale not given: the % may be the effect or the level left
[14] = biological target: T1, Myeloperoxidase (Homo sapiens); experiment: Inhibition of MPO activity in TNF-alpha-stimulated human HL60 cells measured enzyme activity per 10^6 cells at 10 uM by spectrophotometrically; format: cell-based; details: HL-60
[15] = system: RAW264.7; experiment: Increase in intracellular GSH level in mouse RAW264.7 cells assessed as monobromobimane-GSH fluorescence intensity at 20 uM after 120 mins; format: functional, cell-based
[16] = system: RAW264.7; experiment: Antioxidant activity against mouse RAW264.7 cells assessed as reduction of ROS production at 1 uM after 200 mins measured by fluorescent dichlorofluorescein using DCFH-DA substrate; format: functional, cell-based
[17] = biological target: T1, Myeloperoxidase (Homo sapiens); experiment: Inhibition of MPO activity in TNF-alpha-stimulated human HL60 cells measured enzyme activity per 10^6 cells by spectrophotometrically; format: cell-based; details: HL-60

IC50 [5] [µM]	IC50 [6] [µM]	IC50 [7] [µM]	IC50 [9] [µM]	Activity [11] [IU]	Activity [14] [IU]	Activity [17]	SMILES	Activity [1]	Activity [2]	Activity [3]	Activity [4]	Activity [8]	Activity [10]	inhibition (INH) [2] [%]	Activity [12]	Activity [13] [%]	Activity [15]	Activity [16]
39.6	22.7	18.6	21.9				Oc1cc(O)cc(Oc2c(O)cc(O)c3c2Oc2c(O)cc(Oc4c(O)cc(O)cc4O)cc2O3)c1	Non-toxic	Active	inactive	tde	inactive	Dose-dependent effect					
51.8	28.4	22.9	26.5				Oc1cc(O)cc(Oc2c(O)cc(O)c3c2Oc2c(O)cc(O)cc2O3)c1 [ECKOL]	Non-toxic		inactive		inactive						
39.2	21.4	17.7	21.6				Oc1cc(O)cc(Oc2c(O)cc(O)c3c2Oc2c(O)cc4oc5c(Oc6cc(O)cc(O)c6)c(O)cc(O)c5c4c2O3)c1 [PHLOROFUCOFUROECKOL A]	Non-toxic	Active	inactive	tde	inactive	Dose-dependent effect					

Further lines, the molecule ahead of its results:

SMILES	IC50 [5] [µM]	IC50 [6] [µM]	IC50 [7] [µM]	IC50 [9] [µM]	Activity [11] [IU]	Activity [14] [IU]	Activity [17]	Activity [1]	Activity [2]	Activity [3]	Activity [4]	Activity [8]	Activity [10]	inhibition (INH) [2] [%]	Activity [12]	Activity [13] [%]	Activity [15]	Activity [16]
Oc1cc(O)cc(Oc2c(O)cc(O)c3c2Oc2c(O)cc(O)c(-c4c(O)cc(O)c5c4Oc4c(O)cc(O)c(Oc6cc(O)cc(O)c6)c4O5)c2O3)c1	29.7	17.1	8.69	15.9	0.47	0.53	Dose-dependent effect	Non-toxic		inactive	tde	inactive	Dose-dependent effect	67.3	Active	83.58	Active	Active
Oc1cc(O)cc(Oc2c(O)cc(O)c3c2Oc2c(O)cc(Oc4c(O)cc(Oc5c(O)cc(O)c6c5Oc5c(O)cc(O)cc5O6)cc4O)cc2O3)c1 [DIECKOL]	28.6	14.5	8.28	16.2	0.45	0.51	Dose-dependent effect	Non-toxic		inactive	tde	inactive	Dose-dependent effect	70.5	Active	84.27	Active	Active
Oc1cc(O)c(Oc2cc(O)cc(O)c2Oc2cc(O)cc(O)c2-c2c(O)cc(O)cc2O)c(O)c1 [FUCODIPHLOROETHOL G]	33.5	18.1	14.7	18.6				Non-toxic		inactive	tde	inactive	Dose-dependent effect		Active	75.6	Active	
Oc1cc(O)cc(O)c1 [PHLOROGLUCINOL]	392	129		115				Non-toxic		inactive		inactive						
